According to patent publication US10377753B2, “Substituted 4-azaindoles and their use as GluN2B receptor modulators” (Janssen Pharmaceutica NV, priority 2015, dated 2019):
Structures can show the parent of a compound that is named as a salt.

Each molecule was assayed against cloned human NR1/NR2B ion channels (Homo sapiens (Human), UniProt Q05586+Q13224) (assay: HNR2BC: effects of test articles on cloned human NR1/NR2B ion channels expressed in mammalian cells (FLIPR calcium flux)). Details: cloned human NR1/NR2B, Table 5.
Chain of cloned human NR1/NR2B ion channels (Q13224 27-1484, other chains not shown): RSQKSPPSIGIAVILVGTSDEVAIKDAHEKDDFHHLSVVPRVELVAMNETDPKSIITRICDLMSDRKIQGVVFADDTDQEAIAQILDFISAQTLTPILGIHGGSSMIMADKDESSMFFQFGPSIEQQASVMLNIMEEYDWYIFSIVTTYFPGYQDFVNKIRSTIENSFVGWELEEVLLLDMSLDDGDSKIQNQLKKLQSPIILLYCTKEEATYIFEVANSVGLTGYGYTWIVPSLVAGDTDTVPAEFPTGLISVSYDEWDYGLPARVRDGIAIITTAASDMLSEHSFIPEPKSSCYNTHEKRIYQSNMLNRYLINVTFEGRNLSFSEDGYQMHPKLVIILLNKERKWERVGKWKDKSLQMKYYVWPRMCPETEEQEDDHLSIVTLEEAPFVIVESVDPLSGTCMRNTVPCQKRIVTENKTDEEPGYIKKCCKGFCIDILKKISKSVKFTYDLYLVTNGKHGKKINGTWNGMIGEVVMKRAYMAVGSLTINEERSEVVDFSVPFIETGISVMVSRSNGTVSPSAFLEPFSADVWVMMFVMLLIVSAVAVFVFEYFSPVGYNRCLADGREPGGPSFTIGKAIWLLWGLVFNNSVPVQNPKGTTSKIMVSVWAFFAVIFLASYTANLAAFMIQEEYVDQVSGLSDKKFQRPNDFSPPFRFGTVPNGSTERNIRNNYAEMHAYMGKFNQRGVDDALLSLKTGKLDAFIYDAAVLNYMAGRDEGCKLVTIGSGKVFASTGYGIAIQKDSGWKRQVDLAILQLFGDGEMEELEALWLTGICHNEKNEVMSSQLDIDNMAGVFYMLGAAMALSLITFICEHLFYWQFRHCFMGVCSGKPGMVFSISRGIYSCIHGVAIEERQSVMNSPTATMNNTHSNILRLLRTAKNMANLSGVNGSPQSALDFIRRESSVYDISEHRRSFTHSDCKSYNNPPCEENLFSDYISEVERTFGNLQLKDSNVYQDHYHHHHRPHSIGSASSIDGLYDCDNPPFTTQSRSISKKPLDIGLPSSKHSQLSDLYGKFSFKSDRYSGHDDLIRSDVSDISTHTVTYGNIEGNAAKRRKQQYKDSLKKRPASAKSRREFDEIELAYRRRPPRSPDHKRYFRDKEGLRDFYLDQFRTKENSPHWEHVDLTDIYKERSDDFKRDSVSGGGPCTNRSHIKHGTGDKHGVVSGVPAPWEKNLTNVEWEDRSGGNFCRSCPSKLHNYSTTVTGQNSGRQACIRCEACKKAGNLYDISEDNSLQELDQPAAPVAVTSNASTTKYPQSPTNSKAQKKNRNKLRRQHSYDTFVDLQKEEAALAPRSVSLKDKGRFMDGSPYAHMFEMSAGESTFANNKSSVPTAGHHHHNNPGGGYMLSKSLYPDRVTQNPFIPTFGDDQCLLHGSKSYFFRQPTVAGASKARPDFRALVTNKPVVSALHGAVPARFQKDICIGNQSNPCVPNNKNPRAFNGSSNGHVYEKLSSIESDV
Assay type: cell-based
Outline: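 Compounds were added to dye-loaded cells for 5 min with fluorescence monitored for agonism, followed by co-agonists (glutamate ~EC80, glycine 10 μM saturating) for 5 min. Cells stably expressed inducible human NR1/NR2B, and the buffer was pH 7.4. The FLIPR Ca2+ flux signal was normalized against control wells.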

Compound	IC50
O=C(Cn1ccc2ncc(-c3ccccc3)cc21)N1CC(F)(F)C1 [Example 257, 1-(3,3-Difluoroazetidin-1-yl)-2-(6-phenylpyrrolo[3,2-b]pyridin-1-yl)ethanone trifluoroacetate salt]	0.126 µM
CCc1cccc(-c2cnc3ccn(CC(=O)N4CC(F)(F)C4)c3c2)c1 [Example 258, 1-(3,3-Difluoroazetidin-1-yl)-2-[6-(3-ethylphenyl)pyrrolo[3,2-b]pyridin-1-yl]ethanone trifluoroacetate salt]	0.2 µM
Cc1cc(-c2cnc3ccn(CC(=O)N4CC(F)(F)C4)c3c2)ccc1F [Example 259, 1-(3,3-Difluoroazetidin-1-yl)-2-[6-(4-fluoro-3-methyl-phenyl)pyrrolo[3,2-b]pyridin-1-yl]ethanone trifluoroacetate salt]	0.0316 µM
O=C(Cn1ccc2ncc(-c3cccc(C(F)(F)F)c3)cc21)N1CC(F)(F)C1 [Example 260, 1-(3,3-Difluoroazetidin-1-yl)-2-[6-[3-(trifluoromethyl)phenyl]pyrrolo[3,2-b]pyridin-1-yl]ethanone trifluoroacetate salt]	0.0398 µM
Cc1cc(F)ccc1-c1cnc2ccn(CC(=O)N3CC(F)(F)C3)c2c1 [Example 261, 1-(3,3-Difluoroazetidin-1-yl)-2-[6-(4-fluoro-2-methyl-phenyl)pyrrolo[3,2-b]pyridin-1-yl]ethanone trifluoroacetate salt]	0.0501 µM
O=C(Cn1ccc2ncc(-c3ccc(F)c(C(F)(F)F)c3)cc21)N1CC(F)C1 [Example 262, 1-(3-Fluoroazetidin-1-yl)-2-[6-[4-fluoro-3-(trifluoromethyl)phenyl]pyrrolo[3,2-b]pyridin-1-yl]ethanone trifluoroacetate salt]	0.1 µM
O=C(Cn1ccc2ncc(-c3cccc(F)c3)cc21)N1CC(F)C1 [Example 263, 1-(3-Fluoroazetidin-1-yl)-2-[6-(3-fluorophenyl)pyrrolo[3,2-b]pyridin-1-yl]ethanone trifluoroacetate salt]	0.158 µM
Cc1cc(F)ccc1-c1cnc2ccn(CC(=O)N3CC(F)C3)c2c1 [Example 264, 1-(3-Fluoroazetidin-1-yl)-2-[6-(4-fluoro-2-methyl-phenyl)pyrrolo[3,2-b]pyridin-1-yl]ethanone trifluoroacetate salt]	0.0631 µM
O=C(Cn1ccc2ncc(-c3cccc(C(F)(F)F)c3)cc21)N1CC(F)C1 [Example 265, 1-(3-Fluoroazetidin-1-yl)-2-[6-[3-(trifluoromethyl)phenyl]pyrrolo[3,2-b]pyridin-1-yl]ethanone trifluoroacetate salt]	0.1 µM
Cc1cccc(-c2cnc3ccn(CC(=O)N4CC(F)C4)c3c2)c1 [Example 266, 1-(3-Fluoroazetidin-1-yl)-2-[6-(m-tolyl)pyrrolo[3,2-b]pyridin-1-yl]ethanone trifluoroacetate salt]	0.126 µM
O=C(Cn1ccc2ncc(-c3cccc(C(F)(F)F)c3F)cc21)N1CC(F)C1 [Example 267, 1-(3-Fluoroazetidin-1-yl)-2-[6-[2-fluoro-3-(trifluoromethyl)phenyl]pyrrolo[3,2-b]pyridin-1-yl]ethanone trifluoroacetate salt]	0.0398 µM
CCc1cccc(-c2cnc3ccn(CC(=O)N4CC(F)C4)c3c2)c1 [Example 268, 2-[6-(3-Ethylphenyl)pyrrolo[3,2-b]pyridin-1-yl]-1-(3-fluoroazetidin-1-yl)ethanone trifluoroacetate salt]	0.0794 µM
Cc1cccc(-c2cnc3ccn(CC(=O)N4CC(F)(F)C4)c3c2)c1 [Example 269, 1-(3,3-Difluoroazetidin-1-yl)-2-[6-(m-tolyl)pyrrolo[3,2-b]pyridin-1-yl]ethanone]	0.0631 µM
O=C(Cn1ccc2ncc(-c3ccccc3)cc21)N1CC(F)C1 [Example 270, 1-(3-Fluoroazetidin-1-yl)-2-(6-phenylpyrrolo[3,2-b]pyridin-1-yl)ethanone]	0.0398 µM
Cc1c(F)ccc(-c2cnc3c(F)cn(CC(=O)N4CC(F)(F)C4)c3c2)c1F [Example 271, 1-(3,3-Difluoroazetidin-1-yl)-2-[6-(2,4-difluoro-3-methyl-phenyl)-3-fluoro-pyrrolo[3,2-b]pyridin-1-yl]ethanone]	0.0794 µM
Cc1cc(-c2cnc3ccn(CC(=O)N4CC(O)C4)c3c2)ccc1F [Example 273, 2-[6-(4-Fluoro-3-methyl-phenyl)pyrrolo[3,2-b]pyridin-1-yl]-1-(3-hydroxyazetidine-1-yl)ethanone]	1 µM
CO/N=C(/Cn1ccc2ncc(-c3ccc(F)c(C)c3)cc21)C1CC1 [Example 276, 1-Cyclopropyl-2-[6-(4-fluoro-3-methyl-phenyl)pyrrolo[3,2-b]pyridin-1-yl]-N-methoxy-ethanimine]	0.501 µM
O=C(Cn1ccc2ncc(-c3cccs3)cc21)N1CC(F)C1 [Example 277, 1-(3-Fluoroazetidin-1-yl)-2-[6-(2-thienyl)pyrrolo[3,2-b]pyridin-1-yl]ethanone]	3.16 µM
O=C(Cn1ccc2ncc(-c3cccs3)cc21)N1CCCC1 [Example 278, 1-Pyrrolidin-1-yl-2-[6-(2-thienyl)pyrrolo[3,2-b]pyridin-1-yl]ethanone]	0.251 µM
Cc1ccc(-c2cnc3ccn(CC(=O)N4CC(F)(F)C4)c3c2)s1 [Example 279, 1-(3,3-Difluoroazetidin-1-yl)-2-[6-(5-methyl-2-thienyl)pyrrolo[3,2-b]pyridin-1-yl]ethanone]	0.251 µM
Cc1ccc(-c2cnc3ccn(CC(=O)N4CC(F)C4)c3c2)s1 [Example 280, 1-(3-Fluoroazetidin-1-yl)-2-[6-(5-methyl-2-thienyl)pyrrolo[3,2-b]pyridin-1-yl]ethanone]	0.0316 µM
CCc1ccc(-c2cnc3ccn(CC(=O)N4CC(F)C4)c3c2)s1 [Example 281, 2-[6-(5-Ethyl-2-thienyl)pyrrolo[3,2-b]pyridin-1-yl]-1-(3-fluoroazetidin-1-yl)ethanone]	0.02 µM
CCc1ccc(-c2cnc3ccn(CC(=O)N4CCCC4)c3c2)s1 [Example 282, 2-[6-(5-Ethyl-2-thienyl)pyrrolo[3,2-b]pyridin-1-yl]-1-pyrrolidin-1-yl-ethanone]	0.0794 µM
Cc1ccc(-c2cnc3ccn(CC(=O)N4CCCC4)c3c2)s1 [Example 283, 2-[6-(5-Methyl-2-thienyl)pyrrolo[3,2-b]pyridin-1-yl]-1-pyrrolidin-1-yl-ethanone]	0.2 µM
CCc1ccc(-c2cnc3ccn(CC(=O)N4CC(F)(F)C4)c3c2)s1 [Example 284, 1-(3,3-Difluoroazetidin-1-yl)-2-[6-(5-ethyl-2-thienyl)pyrrolo[3,2-b]pyridin-1-yl]ethanone]	0.1 µM
O=C(Cn1ccc2ncc(-c3cc(Cl)cs3)cc21)N1CC(F)C1 [Example 285, 2-[6-(4-Chloro-2-thienyl)pyrrolo[3,2-b]pyridin-1-yl]-1-(3-fluoroazetidin-1-yl)ethanone]	0.158 µM
Cc1cc(-c2cnc3ccn(C/C(=N/O)C4CC4)c3c2)ccc1F [Example 286, 1-Cyclopropyl-2-[6-(4-fluoro-3-methyl-phenyl)pyrrolo[3,2-b]pyridin-1-yl]ethanone oxime trifluoroacetate salt]	0.158 µM
O=C(Cn1ccc2ncc(-c3ccc(Cl)s3)cc21)N1CCCC1 [Example 287, 2-[6-(5-Chloro-2-thienyl)pyrrolo[3,2-b]pyridin-1-yl]-1-pyrrolidin-1-yl-ethanone]	0.631 µM
